From patent US20030109550A1, “Substituted indazole compounds for the treatment of inflammation” (priority 2001, published 2003) come the findings set out here.

Where only a bound is given, the exact number is not on record here.

Data set [1] deals with T1, IKK heterodimer (rhIKK1/IKK2 heterodimer) (Homo sapiens, UniProt O14920+O15111).
T1 construct: made in house; host or cells: insect cells (baculovirus coinfection; SF9 cell paste)
T1 sequence (O15111 1-745): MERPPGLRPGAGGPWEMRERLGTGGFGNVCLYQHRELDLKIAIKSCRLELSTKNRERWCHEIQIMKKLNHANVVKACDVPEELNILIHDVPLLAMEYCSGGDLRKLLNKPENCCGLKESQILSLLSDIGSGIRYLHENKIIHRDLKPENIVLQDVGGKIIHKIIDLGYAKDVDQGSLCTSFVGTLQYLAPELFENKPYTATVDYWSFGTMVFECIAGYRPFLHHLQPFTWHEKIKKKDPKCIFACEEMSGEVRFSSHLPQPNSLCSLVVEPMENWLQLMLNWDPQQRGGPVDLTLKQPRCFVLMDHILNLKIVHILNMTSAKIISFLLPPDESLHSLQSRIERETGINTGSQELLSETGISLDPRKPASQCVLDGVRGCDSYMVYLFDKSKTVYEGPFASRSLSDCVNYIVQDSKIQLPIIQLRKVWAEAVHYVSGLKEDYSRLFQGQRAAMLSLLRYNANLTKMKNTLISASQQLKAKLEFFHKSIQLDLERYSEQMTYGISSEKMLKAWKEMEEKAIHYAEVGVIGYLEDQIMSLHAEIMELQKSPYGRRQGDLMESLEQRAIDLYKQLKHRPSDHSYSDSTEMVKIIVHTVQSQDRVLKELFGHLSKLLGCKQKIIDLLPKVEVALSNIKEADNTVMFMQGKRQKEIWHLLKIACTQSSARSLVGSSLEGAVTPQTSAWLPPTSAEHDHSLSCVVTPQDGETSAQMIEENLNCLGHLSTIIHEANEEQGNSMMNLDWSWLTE
T1 sequence (O14920 1-756): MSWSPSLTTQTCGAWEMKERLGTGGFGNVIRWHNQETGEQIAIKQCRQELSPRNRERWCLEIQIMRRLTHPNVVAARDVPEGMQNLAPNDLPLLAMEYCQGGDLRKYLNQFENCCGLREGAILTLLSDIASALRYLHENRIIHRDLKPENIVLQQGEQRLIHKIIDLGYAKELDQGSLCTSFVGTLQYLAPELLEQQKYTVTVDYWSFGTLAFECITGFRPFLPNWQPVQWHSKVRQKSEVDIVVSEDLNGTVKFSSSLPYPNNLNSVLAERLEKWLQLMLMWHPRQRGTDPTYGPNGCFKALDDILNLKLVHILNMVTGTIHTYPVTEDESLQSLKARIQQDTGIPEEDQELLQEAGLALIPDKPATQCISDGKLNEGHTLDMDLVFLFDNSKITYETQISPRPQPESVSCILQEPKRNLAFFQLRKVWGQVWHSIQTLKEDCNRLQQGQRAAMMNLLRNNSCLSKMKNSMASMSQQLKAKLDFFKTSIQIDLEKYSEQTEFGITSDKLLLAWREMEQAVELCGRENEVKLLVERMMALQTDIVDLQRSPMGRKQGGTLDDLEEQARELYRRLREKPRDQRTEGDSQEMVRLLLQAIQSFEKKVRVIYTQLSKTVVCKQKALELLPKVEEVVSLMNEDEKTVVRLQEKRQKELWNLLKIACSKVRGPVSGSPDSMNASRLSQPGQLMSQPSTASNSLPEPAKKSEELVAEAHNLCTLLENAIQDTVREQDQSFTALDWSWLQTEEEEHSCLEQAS
Description: IKK heterodimer Resin Enzyme Assay. The class given is biochemical. As to conditions: biotinylated IκBα peptide 5 μM, 1 μM ATP, 25° C., 30 min; read-out: HetD (IKK heterodimer Resin Enzyme Assay expressed as IC50). From the text: cDNAs of human IKK1 and IKK2 were amplified by reverse transcriptase-polymerase chain reaction from human placental RNA (Clonetech). hIKK1 was subcloned into pFastBac HTa (Life Technologies) and expressed as N-terminal His6-tagged fusion protein. The hIKK2 cDNA was amplified using a reverse oligonucleotide primer which incorporated the peptide sequence for a FLAG-epitope tag at the C-terminus of the IKK2 coding region (DYKDDDDKD). The hIKK2:FLAG cDNA was subcloned into the baculovirus vector pFastBac. The rhIKK2 ([…]) mutant was constructed in the same vector used for wild type rhIKK2 using a QuikChange™ mutagenesis kit (Stratagene) Viral stocks of each construct were used to infect insect cells grown in 40L suspension culture. […] Cell lysates were stored at −80° C. until purification of the recombinant proteins was undertaken as described in the succeeding sections.
Isolation of rhIKK1/IKK2 Heterodimer
The heterodimer enzyme was produced by coinfection in a baculovirus system (FLAG IKK2/IKK1 His; MOI=0.1 and I=72 hrs). Infected cells were centrifuged and the cell pellet (10.0 g) was suspended in 50 ml of buffer A. The protein suspension was microfluidized and centrifuged at 100,000×g for 45 min. Imidazole was added to the supernatant to a final concentration of 10 mM. The protein was allowed to bind 25 ml of Ni-NTA resin by mixing for 2 hrs. The protein-resin slurry was poured into a 25 ml column and washed with 250 ml of buffer A containing 10 mM imidazole followed by 125 ml of buffer A containing 50 mM imidazole. Buffer A, containing 300 mM imidazole, was then used to elute the protein. A 75 ml pool was collected and NP-40 was added to a final concentration of 0.1%. The protein solution was then dialyzed against buffer B. The dialyzed heterodimer enzyme was then allowed to bind to 25 ml of anti-FLAG M2 agarose affinity gel overnight with constant mixing. The protein-resin slurry was then centrifuged for 5 min at 2,000 rpm. The supernatant was collected and the resin re-suspended in 100 ml of buffer C containing 0.1% NP-40. The resin was washed with 375 ml of buffer C containing 0.1% NP-40. The protein-resin was poured into a 25 ml column and the enzyme eluted using buffer B containing FLAG peptide. Enzyme fractions (100 ml) were collected and concentrated to 20 ml using an Amicon membrane with molecular weight cut-off of 30 kDa. Bovine serum albumin was added to the concentrated enzyme to final concentration of 0.1%. The enzyme was then aliquoted and stored at −80° C.
IKK heterodimer Resin Enzyme Assay
IKK heterodimer kinase activity was measured using a biotinylated IκBα peptide (Gly-Leu-Lys-Lys-Glu-Arg-Leu-Leu-Asp-Asp-Arg-His-Asp-Ser32-Gly-Leu-Asp-Ser36-Met-Lys-Asp-Glu-Glu) (American Peptide Co.). […] ATP was measured using a Top-Count NXT (Packard).

In the case of `NC(=O)c1nn(-c2ccc(S(N)(=O)=O)cc2)c2ccncc12` [Example 8, 1-[4-(aminosulfonyl)phenyl]-1H-pyrazolo[4,3-c]pyridine-3-carboxamide], the melting point lay in the range of 301 to 302 °C.

`CCc1ccc2c(C(N)=O)nn(-c3ccc(S(N)(=O)=O)cc3)c2c1` [Example 14, 1-[4-(aminosulfonyl)phenyl]-6-ethyl-1H-indazole-3-carboxamide] displayed a melting point of 249 to 251 °C.

The compound `Cc1cc(-c2ccc3c(C(N)=O)nn(-c4ccc(S(N)(=O)=O)cc4)c3c2)ccc1F` [Example 5, 1-[4-(aminosulfonyl)phenyl]-6-(4-fluoro-3-methylphenyl)-1H-indazole-3-carboxamide] registered a melting point of 300 to 302 °C.

`CN(C)c1cccc(-c2ccc3c(C(N)=O)nn(-c4ccc(S(N)(=O)=O)cc4)c3c2)c1` [Example 6, 1-[4-(aminosulfonyl)phenyl]-6-[3-(dimethylamino)phenyl]-1H-indazole-3-carboxamide] returned a melting point of 237 to 238 °C. Besides, in data set [1], the concentration for half-maximal inhibition (IC50) is more than 100 µM.

On to `Cc1ccc2c(C(N)=O)nn(-c3ccc(S(N)(=O)=O)cc3)c2c1` [Example 9, 1-[4-(aminosufony)phenyl]-6-methyl-1H-indazole-3-carboxamide], for which the melting point fell in the range of 251 to 252 °C.

The compound `NC(=O)c1nn(-c2ccc(S(N)(=O)=O)cc2)c2cc(-c3ccccc3)ccc12` [Example 10, 1-[4-(aminosulfonyl)phenyl]-6-phenyl-1H-indazole-3-carboxamide] displayed a melting point of 232 to 234 °C.

With `CNc1cccc(-c2ccc3c(C(N)=O)nn(-c4ccc(S(N)(=O)=O)cc4)c3c2)c1` [Example 7, 1-[4-(aminosulfonyl)phenyl]-6-[3-(methylamino)phenyl]-1H-indazole-3-carboxamide], the melting point was 159 to 160 °C.

As for `COc1ccc(-c2ccc3c(C(N)=O)nn(-c4ccc(S(N)(=O)=O)cc4)c3c2)cc1` [Example 1, 1-[4-(aminosulfonyl)phenyl]-6-(4-methoxyphenyl)-1H-indazole-3-carboxamide], the melting point is 258 to 259 °C. For the same compound, the IC50 in data set [1] is more than 100 µM.

For the compound `NC(=O)c1nn(-c2ccc(S(N)(=O)=O)cc2)c2cc(-c3ccc(F)cc3)ccc12` [Example 2, 1-[4-(aminosulfonyl)phenyl]-6-(4-fluorophenyl)-1H-indazole-3-carboxamide], the melting point fell in the range of 314 to 315 °C.

Turning to `Cc1cccc(-c2ccc3c(C(N)=O)nn(-c4ccc(S(N)(=O)=O)cc4)c3c2)c1` [Example 3, 1-[4-(aminosulfonyl)phenyl]-6-(3-methylphenyl)-1H-indazole-3-carboxamide], the melting point was in the range of 261 to 263 °C.

`NC(=O)c1nn(-c2ccc(S(N)(=O)=O)cc2)c2cc(Cc3ccccc3)ccc12` [Example 12, 1-[4-(aminosulfonyl)phenyl]-6-benzyl-1H-indazole-3-carboxamide] came in with a melting point of 207 to 209 °C.

Take `CCOc1ccc2c(C(N)=O)nn(-c3ccc(S(N)(=O)=O)cc3)c2c1` [Example 13, 1-[4-(aminosulfonyl)phenyl]-6-ethoxy-1H-indazole-3-carboxamide]: the melting point was in the range of 213 to 214 °C.

`CC(C)(C)c1ccc(-c2ccc3c(C(N)=O)nn(-c4ccc(S(N)(=O)=O)cc4)c3c2)cc1` [Example 4, 1-[4-(aminosulfonyl)phenyl]-6-(4-tert-butylphenyl)-1H-indazole-3-carboxamide]: the melting point was in the range of 262 to 263 °C. Further, the concentration for half-maximal inhibition (IC50) in data set [1] was more than 100 µM.

The compound `NC(=O)c1nn(-c2ccc(S(N)(=O)=O)cc2)c2cc(-c3cccnc3)ccc12` [Example 15, 1-[4-(aminosulfonyl)phenyl]-6-pyridin-3-yl-1H-indazole-3-carboxamide] came in with a melting point of 310 to 313 °C.

`COc1cccc(-c2ccc3c(C(N)=O)nn(-c4ccc(S(N)(=O)=O)cc4)c3c2)c1` [Example 11, 1-[4-(aminosulfonyl)phenyl]-6-(3-methoxyphenyl)-1H-indazole-3-carboxamide] registered a melting point of 229 to 230 °C. Besides, in data set [1], the half-maximal inhibitory concentration (IC50) worked out at 1 µM.

In general, melting point refers to the temperature of the solid-liquid transition. The term IC50 denotes the concentration that inhibits the measured activity by half.
